Results from US8148347B2, “Inhibition of interaction of PSD93 and PSDS95 with nNOS and NMDA receptors” (The Johns Hopkins University, priority 2000, dated 2012).

Legend:
Assay type in all cases: in vivo, rat
Male Sprague-Dawley rats [1] = assay: measurement of isoflurane MAC (tail clamp); conditions: saline-treated group, intrathecal NMDA 1.25 μg
Experimental: The ODNs were dissolved in saline before administration. As described in the previous work,^49 the rats were injected intrathecally with saline (10 μl) (control), antisense ODNs (12.5, 25, 50 μg/10 μl), sense ODN (50 μg/10 μl) and missense ODN (50 μg/10 μl), respectively, followed by an injection of 10 μl of saline to flush the catheter, every 24 h for 4 days.
(§1) On the fifth day after saline or ODNs injection, each rat was placed in a clear plastic cone and anesthetized with 5% isoflurane in oxygen for three to five minutes. After tracheostomy, the trachea of each animal was intubated with a 16-gauge polyethylene catheter. The inspired isoflurane concentration was reduced to 2%, and the animals breathed spontaneously until cannulation of a carotid artery and a jugular vein with PE-50 tubing was accomplished. The isoflurane concentration was decreased further to 1.5%, and ventilation was controlled by a Harvard Animal Respirator (Harvard Apparatus, South Natick, Mass.) adjusted according to the measurement of arterial blood gases to maintain normal partial pressure of oxygen (PO2=91-94 mmHg), partial pressure of carbon dioxide (PCO2=33-41 mmHg) and pH (7.4-7.44). Electrocardiography and systolic and diastolic blood pressure were monitored using a Grass Polygraph (Astroumed Grass, Quincy, Mass.) and Gould Pressure Transducer (Gould, Cleveland, Ohio). Rectal temperature was maintained between 36.5 and 37.5° C. by use of a heating blanket and warming lights.
A PE-10 catheter was introduced through and beyond the endotracheal tube until obstruction to passage was met and then withdrawn 1 to 2 mm. For isoflurane MAC measurement, the PE-10 catheter was connected to a parameter airway gas monitor (Datex-Engstrom, Inc., Tewksbury, Mass.). After stabilizing about 30 minutes, MAC was measured according to the methods described previously^34 using a long hemostat (8-inch Rochester Dean Hemostatic Forceps) clamped to the first ratchet lock on the tail for 1 min. The tail was always stimulated proximal to a previous test site. Gross movement of the head, extremities, or body was taken as a positive test result, whereas grimacing, swallowing, chewing, or tail flick were considered negative results. The isoflurane concentration was reduced in decrements of 0.12 to 0.15% until the negative response became positive, with 12-15 min equilibration allowed after changes in concentration.^50,51 The MAC was considered to be the concentration midway between the highest concentration that permitted movement in response to the stimulus and the lowest concentration that prevented movement. Finally, intrathecal PE-10 catheter position from each animal was confirmed.
(§2) In some saline-treated rats, after initial baseline MAC determination, NMDA at the dose of 1.25 μg^38 or saline was injected intrathecally in a volume of 10 μl saline, followed by an injection of 10 μl saline to flush the catheter. Fresh NMDA solution was prepared for each experiment. […] At this isoflurane concentration, 10 min after the intrathecal injection of NMDA, the animals were tested again for reactivity to tail clamp. The concentration of isoflurane was increased, and response to tail clamp was checked every 12-15 min thereafter until a negative response was achieved. In some antisense ODN (50 μg)-treated rats, after initial MAC determination, NMDA or saline was also administered intrathecally. The MAC for isoflurane was again determined following the aforementioned procedures.

Male Sprague-Dawley rats [2] = assay: radiant heat tail-flick test, baseline and NMDA-induced thermal hyperalgesia
Text: To examine whether PSD-95/SAP90 was required for thermal hyperalgesia triggered through NMDA receptor activation, we made an antisense oligonucletide (OND) corresponding to the PDZ domain nucleotides 241 to 258 (5′-[…]-3′; SEQ ID NO: 1) of rat PSD-95/SAP90 mRNA, as well as the sense OND and missense OND (5′-[…]-3′; SEQ ID NO: 2). All of the ONDs were compared to the Gene Bank database (GenBank accession number M96853) and found not to be complementary to any registered nucleotide sequences. The effects of antisense, sense and missense ONDs on baseline and NMDA-induced tail-flick latencies were assessed. […] To identify that NMDA-induced thermal hyperalgesia was produced specifically through NMDA receptor activation but not non-NMDA receptor activation, we observed the effects of a selective NMDA receptor antagonist, MK-801, and a selective non-NMDA receptor antagonist, DNQX, on NMDA-induced facilitation of the tail-flick reflex. […] In addition, motor weakness or dysfunction was not observed in locomotor tests (including placing reflex, grasping reflex and righting reflex) in any of the treated animals including the antisense groups (data not shown).
Animal preparation and behavioral testing. All experiments were carried out with the approval of the Animal Care Committee at the Johns Hopkins University and were consistent with the ethical guidelines of the National Institutes of Health and the International Association for the Study of Pain. Male Sprague-Dawley rats (250-300 g) were implanted with an intrathecal PE-10 catheter into the subarachnoid space at the rostral level of the spinal cord lumbar enlargement through an incision at the atlanto-occipital membrane according to the method as described.^25,27 One week or more later, the rats were injected intrathecally with saline or ONDs every 24 h for 4 days. On the fifth day, saline, NMDA, MK-801+NMDA or DNQX+NMDA was given intrathecally. Nociception was evaluated by the radiant heat tail-flick test. The doses and time point of maximal effect of NMDA used in the present study were determined based on a previous study.^24 The tail-flick apparatus (Model 33B Tail Flick Analgesy Meter, IITC Life Science, Woodland Hills, Calif., USA) generated a beam of radiant heat that was focused on the underside of the tail, 5 cm from the tip. A cut-off time latency of 13.5 s was used to avoid tissue damage to the tail. Nociception was assessed by the time required to induce tail-flick after applying radiant heat to the skin of the tail. The latency of reflexive removal of the tail from the heat was measured automatically to the nearest 0.01 s. Tail-flick latency was measured five times, and the basal latency was defined as the mean. Tail-flick data were expressed as percentage change calculated by the formula: (trial latency−baseline latency)/(baseline latency)×100%. Finally, PE-10 catheter position from each animal was confirmed when lumbar enlargement segments were removed for western blot analysis. PCR analysis of PSD-95/SAP90 in rat spinal cord. The cDNA sequences encoding portions of the PSD-95/SAP90 were amplified using the following synthetic OND primers: PSD1 (5′-[…]-3′; SEQ ID NO: 3) and PSD2 (5′-[…]-3′; SEQ ID NO: 4) for amplification of PSD-95/SAP90 codon positions 789-1525. RNA samples (1 μg) from rat spinal cord, brain and muscle were reverse transcribed to generate first-strand cDNA. The PCR reactions were performed for 25 cycles. Each cycle included 30 s at 94° C., 30 s at 55° C., and 30 s at 71° C. The PCR products were directly cloned into the TA cloning vector (Invitrogen Co., San Diego, Calif., USA) and verified by automatic DNA sequencing. Fusion protein construction and preparation. cDNA sequence encoding portion of PSD-95/SAP90 was amplified by PCR and subcloned in-frame into PGEX-2T (GIBCO, Rockville, Md., USA) via the BamHI and EcoRI restriction digest sites. […]

Male Sprague-Dawley rats [3] = assay: tests of locomotor function (placing, grasping, righting reflex) and general behaviors; conditions: saline pretreatment + 1.25 μg NMDA intrathecal; five trials, mean (SD)
Experimental: The effects of ODNs on locomotor function were examined using the following methods.^52 The animals were organized randomly into six groups: control (saline); 12.5 antisense ODN; 25 μg antisense ODN; 50 μg antisense ODN; 50 μg sense ODN; 50 μg missense ODN. The rats were pretreated with ODNs or saline in the manner described above. On the fifth day, 10 μl of saline was injected intrathecally for each rat. In some saline or antisense ODN (50 μg)-treated rats, fresh NMDA solution (1.25 μg/10 μl) was injected intrathecally. The following tests were performed with the experimenter blind to which group was treated with the agents: (1) Placing reflex: The rat was held with the hind limbs slightly lower than the forelimbs, and the dorsal surfaces of the hind paws were brought into contact with the edge of a table. The experimenter recorded whether the hind paws were placed on the table surface reflexively; (2) Grasping reflex: The rat was placed on a wire grid and the experimenter recorded whether the hind paws grasped the wire on contact; (3) Righting reflex: The rat was placed on its back on a flat surface and the experimenter noted whether it immediately assumed the normal upright position. […] In addition, the rat general behaviors including spontaneous activity were observed.

Male Sprague-Dawley rats [4] = assay: blood pressure and heart rate during isoflurane anesthesia; conditions: saline-treated group, intrathecal NMDA 1.25 μg
Text: as §1, §2

In the case of `CN[C@H](CC(=O)O)C(=O)O` [NMDA, N-methyl-D-aspartate], the “increase from isoflurane control MAC” value (Male Sprague-Dawley rats [1]) is reported as 15%, the “ΔTF latency (%)” value (Male Sprague-Dawley rats [2]; NMDA alone, intrathecal 10 nM/10 μl) is reported as −25.84% and the “facilitation of the tail-flick reflex” value (Male Sprague-Dawley rats [2]; intrathecal NMDA 5 nM/10 μl (data not shown)) is reported as “induced a facilitation of the tail-flick reflex”. For the same molecule, the “tail-flick latency after NMDA” value (Male Sprague-Dawley rats [2]; intrathecal NMDA 10 nM/10 μl, baseline 6.58±0.57) was 4.88 ± 0.41 s, the Grasping (Male Sprague-Dawley rats [3]) was 5 (0) and the Placing (Male Sprague-Dawley rats [3]) was 5 (0). The Righting (Male Sprague-Dawley rats [3]) was 5 (0), the Heart rate (Male Sprague-Dawley rats [4]) was 529.20±55.20 beats/min and the diastolic blood pressure (Male Sprague-Dawley rats [4]) was 118.30±7.81 mmHg. It also gave a systolic blood pressure (Male Sprague-Dawley rats [4]) of 135.70±3.38 mmHg.
In the case of `C[C@]12N[C@H](Cc3ccccc31)c1ccccc12` [MK-801], the “facilitation of the tail-flick reflex stimulated by NMDA” value (Male Sprague-Dawley rats [2]; intrathecal MK-801 10 nM/10 μl) is reported as “completely abolished” and the “ΔTF latency (%)” value (Male Sprague-Dawley rats [2]; intrathecal MK-801 10 nM/10 μl + NMDA) is reported as 0.9%.
In the case of `O=[N+]([O-])c1cc2nc(O)c(O)nc2cc1[N+](=O)[O-]` [DNQX], the “facilitation of the tail-flick reflex stimulated by NMDA” value (Male Sprague-Dawley rats [2]; intrathecal DNQX 20 nM/10 μl) is reported as “had no effect” and the “ΔTF latency (%)” value (Male Sprague-Dawley rats [2]; intrathecal DNQX 20 nM/10 μl + NMDA) is reported as −22.6%.
